These results are taken from US9037230B2, “Method and device for treating microscopic tumors remaining in tissues following surgical resection” (OncoSec Medical Incorporated, priority 2006, dated 2015).

A short description of series [1]: Histological evaluation of incision healing (skin, subcutaneous tissue, muscle) in swine. The series is classed as in vivo. The protocol: (§1) In this experiment eighteen transcutaneous incisions were made into the dorsal muscles in each of eight pig test animals grouped 1-6. In study groups 1-5, longitudinal incisions were made while in group 6 the incisions were transverse to the longitudinal orientation of the muscle fiber. At each incision site, either nothing, normal saline, or Bleomycin in solution was injected such that injections were placed to a 1 cm depth and spaced at 1 cm distances from one another with three injections, one on each side of each incision within 3 cm of each other and one in the center of the incision. Bleomycin, an anti-cancer agent, was used wherein each injection consisted of 0.125 ml (4 units/ml saline). The incisions were then treated with bipolar pulses of 530 V, 100 μsec each, from a pulse generator using a 6-needle electrode array of 0.5 cm diameter (nominal field strength for each pulse was 1,233 V/cm).
(§2) Specifically, 8 male Yorkshire/Hampshire cross swine (40-50 kg) were acclimated 5-7 days prior to surgery. Incision locations were marked on the dorsum using sterile surgical markers. Each incision was 5 cm long and made to a depth of 5 mm into the muscle. All animals in groups 1-5 received 18 longitudinal incisions each, while animals in group 6 received transverse incisions, in accordance with Table I. Each study group comprised 24 incisions.
Injections of a total volume of 1.5 ml of saline or Bleomycin (6 U) were administered at 12 sites per incision, 6 in the muscle and 6 in the skin. Incisions treated with electroporation were electroporated using a 0.5 cm diameter, 1.5 cm long needle array. On each side of the muscle incision, electroporation was given 3 times in the central 3 cm of the incision, each electroporation site being 1 cm apart from the other. Skin was not electroporated. The epimysium was closed with 4-0 Vicryl absorbable interrupted sutures. The skin was closed with 4-0 nylon interrupted sutures. Swine were sacrificed at 2 d, 1 wk, 2 wks, or 3 wks following surgery. […]

Series [2] is described as follows: Breaking strength of healing skin incisions in swine after Bleomycin with or without electroporation. The class given is in vivo. The protocol: as §1, §2
Injections of a total volume of 1.5 ml of saline or Bleomycin (6 U) were administered at 12 sites per incision, 6 in the muscle and 6 in the skin. Incisions treated with electroporation were electroporated using a 0.5 cm diameter, 1.5 cm long needle array. On each side of the muscle incision, electroporation was given 3 times in the central 3 cm of the incision, each electroporation site being 1 cm apart from the other. Skin was not electroporated. The epimysium was closed with 4-0 Vicryl absorbable interrupted sutures. The skin was closed with 4-0 nylon interrupted sutures. Swine were sacrificed at 2 d, 1 wk, 2 wks, or 3 wks following surgery. Histology specimens containing skin and at least 5 mm depth of underlying muscle were taken from the center of the incision and immediately placed in 10% neutral buffered formalin. An additional control specimen was taken from non-incised skin on the dorsum. After staining and sectioning, skin, subcutaneous tissue, and muscle were graded histologically on a 0-3 scale using the following parameters: Healing, Granulations/Fibrosis, PMN's, Lymphocytes, Histiocytes, Necrosis, Hemorrhage and Atypical Cells.
Mechanical testing was performed on strips of skin removed from the center of the incision at three different time points, namely, Days 7, 14, and 21. […] Breaking strength was determined by plotting the […] versus the strain for each incision up to the breaking point. […]

In series [3] the test system is HT-29 human colon carcinoma cells. As to the kind of experiment: Gross consistency of HT-29 tumors excised at various times after Bleomycin-EPT. The class given is in vivo, mice. The protocol:
For this purpose, three additional cohort Groups 9, 10, and 11 were used.
The animals of Group 9 were anaesthetized followed by complete excision of the tumors. The tumors were examined for consistency and preserved in formalin for later histological evaluation, as were the tumor tissues of cohorts 10 and 11. Anaesthetized animals of cohort 10 were subjected to intratumoral administration of Bleomycin solution at a dose and volume as described above. EP was performed 10 minutes after drug administration. Tumors were excised 2 hrs after EP. Animals of cohort 11 were treated as those in cohort 10 except that their tumors were completely removed at 24 hrs after EP. All wounds were closed as described above. Results
With respect to cohorts 9-11, we observed that the consistency of the tumor changed progressively with time after treatment. […] At that time point surgical excision was somewhat difficult because the boundaries of the tumor were ill defined as compared to the solid tumor tissue mass of cohort 9 animals. […] These observations provide proof of the opportunity of using drug, such as Bleomycin or other anticancer agent, in combination with EPT as adjuvant or tumor debulking therapy that can additionally be used alone or in conjunction with other cancer therapies. For example, a tumor could be treated with Bleomycin-EPT, the disintegrated tumor material be removed by a simple minimally invasive procedure, and if desired, followed by conventional treatments such as radiation or chemotherapy, or other tumor therapy modalities. Easy removal of the liquefied tumor material can also allow the wound to heal faster and with fewer complications, especially in the case of large tumors.

For series [4] the test system is unchanged. As to conditions: stated as known, not tested; cited from earlier work.
Series [5] shares this test system. As to the kind of experiment: Tumor recurrence after surgery and Bleomycin electroporation therapy (EPT) in nude mice with HT-29 tumors. The class given is in vivo. The following applies: for % efficacy (animals that did NOT experience tumor growth post treatment): three weeks after treatment. The protocol:
In this example, a series of experiments were performed in mice wherein tumor recurrence rates were determined after surgery alone or after surgery and EPT. Specifically, this experiment comprises an in vivo study to establish the efficacy of EPT on surgical margin treatment in nude mice after subcutaneous introduction of HT-29 human colon carcinoma cells and resection of the tumors that arise from such introduction. The experiment was conducted under humane conditions with respect to treatment of the test animals.
The experimental design was as follows. Normal Athymic Nude female mice 4-6 weeks of age were placed in 8 groups of six mice each, except for Group 1 which comprised 10 animals and Group 3 comprising 7 animals. The HT-29 cell line is derived from a human colon carcinoma and is an aggressive fast-growing tumor in mice. In each group the animals received HT-29 human tumor cells in the form of two adjacent inocula of 5×10^6 cells using a 21 gauge needle and syringe. The HT-29 cell line was obtained from […] (#HTB-38), grown in McCoy's 5a medium (modified) with 1.5 mM L-glutamine adjusted to contain 2.2 g/L sodium bicarbonate, 90%, and fetal bovine serum, 10%. Cells were divided 1:2 to 1:4 on growth cycles until sufficient cells were available to use in this experiment.
Following inoculation the tumors became established at the site of the inoculations. The tumor volume on each animal was monitored regularly and calculated using the formula: Tumor volume=(a^2×b/2) where ‘a’ is the smallest diameter and ‘b’ is the largest diameter perpendicular to ‘a’. Tumors were measured three times per week starting from the day the tumors were palpable by hand. The tumors were allowed to progress until the size was between 500 and 1500 cubic millimeters. Surgical tumor removal, partial removal, or no removal was then performed in association with either EPT or no EPT. In these experiments EPT means treatment with Bleomycin and electroporation (EP). The EP, where performed, was conducted with one pulse cycle (i.e., 6 pulses at 4 Hz) per electrode insertion using a standard MedPulser generator (Genetronics, Inc. San Diego, Calif.) and an applicator with a disposable six needle array of 1 cm diameter, a distance between electrodes of 0.86 cm, and 1 cm needle length. […] The needle array was inserted percutaneously and essentially perpendicular to the surface of the flank of the mouse carrying the tumor. Alternatively, in those cases where the tumor was excised first, followed by i.v. injection of Bleomycin and then by EP, the needle electrode array was inserted percutaneously encompassing the surgical wound area (Groups 5-8).
Where Bleomycin was used in the experiment, it was injected at 4 U/ml saline (1U=1 mg) as uniformly as possible into tumor and margin tissues, as indicated, at a dose of 0.25 ml/cm^3 volume of tissue to be treated. Alternatively, where indicated, a corresponding amount of Bleomycin was injected into the tail vein.
The experiment used 8 cohorts of at least 6 mice each. Each cohort was subjected to a treatment regimen of a combination of any of EP, Bleomycin, saline instead of Bleomycin, complete tumor excision, partial tumor excision, and no tumor excision. Tables II and III disclose the treatment regimens.
For experiments on animals listed in Table II, the animals were anaesthetized, followed by removal or partial removal of the tumor as indicated, followed in turn by intraveneous (i.v.) injection of Bleomycin or saline. The Bleomycin dose was dependent on tumor size as described above. After 3 to 4 minutes, the animals indicated were treated with EP followed by closure of the wound with clips and surgical adhesive. In cohort 1, the entire tumor was surgically removed (see, for example FIGS. 12B and C) and the animals treated with Bleomycin and EP. In cohort 2, the tumors were removed from the animals but only saline was injected instead of Bleomycin and no EP was performed. […]

Bleomycin: in series [1] (2 weeks, difference disappeared by 3 weeks), the “muscle necrosis, Bleomycin plus EP vs Bleomycin” value is listed as “significant increase in muscle necrosis”. For the same substance, the histological changes entry in series [1] (day 7, Bleomycin groups) is “statistically significant changes”. Moreover, in series [1] (day 21, all Bleomycin injected samples), the “histology compared with controls” value is reported as “comparable with saline-injected controls”. Also, the “reduction of breaking strength of skin incisions compared to non-Bleomycin groups” value in series [2] (1 week post-incision, all three Bleomycin treated groups (with or without EP)) turned out to be 90%. In series [2] (three weeks post incision, FIG. 1), the “wound strength (breaking point), difference between saline and Bleomycin with or without EP” value was “no substantial difference”. For the same substance, the “breaking strength of skin incisions, difference between groups” value is “no significant differences between Groups 1-5” in series [2] (week 2, longitudinal incisions, Bleomycin with or without EP (Groups 4, 5) vs Groups 1-3); “significantly lower breaking strength” in series [2] (week 3, Group 6, transverse incisions with Bleomycin and EP vs Groups 1-5). In addition, the “consistency of the tumor” value in series [3] (cohort 10: excised two hours after i.t. Bleomycin-EP) is recorded as “softer, less well defined”; in series [3] (cohort 11: excised 24 hrs after i.t. Bleomycin-EP), “completely softened”; in series [3] (cohorts 5 and 7: removed 15 minutes after i.t. Bleomycin-EP), “softening of the tumor”. The “antitumoral activity of Bleomycin administration without EP” value in series [4] is “no significant antitumoral activity”. Moreover, the “% efficacy (animals that did NOT experience tumor growth post treatment)” value in series [5] (Group 1: complete tumor excision, Bleomycin i.v., EP) is on record as 90%; in series [5] (Group 3: partial tumor excision, Bleomycin i.v., EP), 67%; in series [5] (Group 5: Bleomycin intratumoral, EP, complete tumor excision 15 minutes later) it was 100%; in series [5] (Group 6: no tumor excision, Bleomycin intratumoral, EP), 80%; in series [5] (Group 7: Bleomycin intratumoral, EP, partial tumor excision 15 minutes later), 100%; in series [5] (Group 8: no tumor excision, Bleomycin intratumoral, partial (off-centered) EP), 67%. The “tumor recurrence at the site of treatment” value in series [5] (Group 1: complete tumor removal, Bleomycin-EP, 3 weeks post treatment (FIG. 12)) is reported as “no tumor recurred”. The tumor recurrence result in series [5] (Group 7: partial tumor removal, Bleomycin i.t. and EP, 3 weeks (FIG. 13)) is recorded as “no tumor recurrence”; in series [5] (cohorts 5 and 7: Bleomycin i.t. and EP, excision 15 minutes after treatment), “no tumor recurrence”.
